“And” between values parts separate entries of the source, which are not always exact repeats. Equal entries are not always repeated. Where two headings read alike, the source gives them in different places.
How the values were obtained:
HCV [1] = assay: HCV infectivity, supernatant transferred onto naive Huh7-Lunet-N-hCD81-FLuc cells, Renilla luciferase; assay type: cell-based, hepatitis C virus
YFV = assay: microbe, parasite or virus in culture; assay type: cell-based, yellow fever virus; conditions: for IC50: Yellow fever virus, Vero, read-out: IC50, YFV infectivity
ZIKV [2] = assay: Direct effect on virus stability: ZIKV preincubated with K22, then titrated; assay type: cell-based, Zika virus; conditions: 2 h at room temperature, increasing K22 concentrations
Method: Shortly, the compound was diluted in DMSO to reach the desired concentrations (0, 5, 10, 20, 30, and 40 μM) and incubated with the cells for 2 h prior to infection, during infection, or after a period of 2, 6, 10, 14, 18, 22, or 24 h. […] Next, the inoculum was discarded, the cells were washed with prewarmed PBS, and culture medium was added to the wells. Additionally, in order to analyze the direct effect of K22 on virus stability, ZIKV in DMEM was incubated for 2 h at room temperature with the different K22 concentrations and titrated in 10-fold serial dilution on Vero cells for measurement of virus infectivity as described above.

HCV [3] = assay: HCV replication, JcR-2a Renilla luciferase reporter virus in Huh7-Lunet-N-hCD81-FLuc cells; assay type: cell-based, hepatitis C virus
ZIKV [4] = assay: Time-of-addition assay, ZIKV in Vero B4 cells; assay type: cell-based, Zika virus; conditions: K22 added pre- or postinfection, supernatant at 24 h p.i.
WNV = WNV infectivity (TCID50 titration) and replication in K22-treated Vero cells; assay type: cell-based, West Nile virus; conditions: for IC50: West Nile virus, MOI 0.1 TCID50/cell
Method: (§1) To test the effect of K22 on flavivirus, hepacivirus, and pestivirus infection, 8 × 10^4 Vero cells were seeded in 12-well dishes (flaviviruses), 5 × 10^4 Huh7-Lunet-N-hCD81-FLuc cells were seeded in 12-well dishes (hepacivirus), or 1 × 10^4 BT cells were seeded in 96-well dishes (pestivirus). At 1 day postseeding, cells were treated with different concentrations of K22 (diluted in DMSO at the concentrations indicated below) for 3 to 4 h and preincubated in 5% CO2 at 37°C. Cells were infected with different viruses at a multiplicity of infection (MOI) of 0.1 TCID50/cell for 1 h at 37°C. For HCV infection, cells were infected with JcR-2a or HCV Jc1 for 3 h at 37°C. Afterwards, cells were washed with prewarmed phosphate-buffered saline (PBS) solution, before cell culture medium supplemented with K22 or the DMSO control at each concentration was added, and incubated at 37°C in a 5% CO2 atmosphere. At 24 h and/or 48 h postinfection (p.i.), supernatants and cells were collected for further analysis.
(§2) Flavivirus replication and the cytopathic effect (CPE) were evaluated from collected cells. Cells in suspension were first labeled with the Fixable Aqua dead cell stain kit (Thermo Fisher Scientific, Waltham, MA, USA) for 30 min on ice, followed by washing with cold PBS. […] After washing, anti-mouse IgG2a conjugated with Alexa Fluor 647 (Thermo Fisher Scientific) was added for 15 min, and the cells were acquired on a FACSCanto II flow cytometer (BD Biosciences, Allschwil, Switzerland). FlowJo (v.9.1) software (TreeStar, Inc., Ashland, OR, USA) was used for analysis. Cell debris and doublets were excluded by electronic gating in forward/side scatter plots. Cell culture supernatants were collected at 24 and 48 h p.i., and the flavivirus titers in Vero cells were determined using the immunoperoxidase monolayer assay (IPMA). For that, supernatants 10-fold diluted in cell culture medium supplemented with 2% (vol/vol) FBS were incubated on Vero cells for 72 h at 37°C in a 5% CO2 atmosphere. At that point, cells were fixed in 4% (wt/vol) PFA for 10 min at room temperature, washed, and immunolabeled with anti-flavivirus group antigen antibody 4G2 diluted in 0.3% (wt/vol) saponin in PBS for 30 min at 37°C and then washed and incubated for another 30 min at 37°C with goat anti-mouse IgG conjugated with horseradish peroxidase (Dako), followed by incubation for 10 to 30 min at room temperature with 3-amino-9-ethylcarbazole (AEC) substrate (Sigma-Aldrich).

BVDV SuwaNcp = BVDV SuwaNcp replication, qRT-PCR of viral RNA in BT cells; assay type: cell-based, bovine viral diarrhea virus
BVDV SuwaCp [5] = assay: microbe, parasite or virus in culture; assay type: cell-based, bovine viral diarrhea virus
ZIKV [6] = assay: ZIKV infectivity (TCID50 titration of supernatant) and replication (E protein flow cytometry) in K22-treated Vero cells; assay type: cell-based, Zika virus; conditions: for IC50: Zika virus, Vero cells, MOI 0.1 TCID50/cell
Method: as §1, §2

BVDV SuwaCp [7] = assay: BVDV SuwaCp replication, qRT-PCR of viral RNA in BT cells; assay type: cell-based, bovine viral diarrhea virus
[8] = Bovine viral diarrhea virus isolates and strains, 48 h

## O=C(N/C(=C\c1ccccc1)C(=O)N1CCC(O)(c2ccc(Br)cc2)CC1)c1ccccc1 [K22, (Z)-N-{3-[4-(4-bromophenyl)-4-hydroxypiperidin-1-yl]-3-oxo-1-phenylprop-1-en-2-yl} benzamide]
HCV [1]
  SI (selectivity index), HCV: 9.7
HCV [1]; Hepatitis C virus, 72 h, read-out: IC50 for infectivity, HCV
  IC50: 2.2 µM
YFV
  K22 concentrations reducing YFV replication and infectivity: ≥ 5 µM
  SI (selectivity index), YFV: 24.3 and 36.7
YFV; 24 h
  IC50: 3.7 µM
YFV; 48 h
  IC50: 2.3 µM
ZIKV [2]
  effect of preincubation of ZIKV with K22 on infectivity: does not affect ZIKV infectivity
HCV [3]; CC50 21.3 μM vs IC50 7.0 μM
  CC50 relative to IC50 (replication), HCV: 3 fold
HCV [3]; Hepatitis C virus, 48 h, read-out: IC50 for replication, HCV
  IC50: 7 µM
HCV [3]; {}
  K22 concentrations significantly reducing HCV replication as well as infectivity: ≥ 20 µM
ZIKV [4]
  antiviral activity by time of addition: displayed antiviral activity when added at several hours postinfection
WNV; 24 h p.i.
  SI (selectivity index), WNV: 32.3
WNV; 48 h p.i.
  SI (selectivity index), WNV: 10.0
WNV; Vero cells
  K22 concentrations significantly reducing WNV replication and infectivity: ≥ 10 µM
WNV; 24 h p.i., Vero cells
  IC50: 2.8 µM
WNV; 48 h p.i., Vero cells
  IC50: 8.4 µM
BVDV SuwaNcp; [8]
  IC50: 34.7 µM
BVDV SuwaNcp; qRT-PCR, BT cells
  K22 concentrations necessary to significantly reduce viral replication of BVDV SuwaNcp: ≥ 40 µM
BVDV SuwaCp [5]
  SI (selectivity index), BVDV SuwaCp: >24.6
BVDV SuwaCp [5]; Bovine viral diarrhea virus isolates and strains, read-out: IC50 for infectivity, BVDV SuwaCp
  IC50: 14.2 µM
ZIKV [6]; 24 h p.i.
  SI (selectivity index), ZIKV: 35.6
  IC50: 2.5 µM
ZIKV [6]; 48 h p.i.
  SI (selectivity index), ZIKV: 39.9
  IC50: 2.1 µM
ZIKV [6]; higher concentrations of K22, Vero cells
  reduction of ZIKV viral titers: up to 4 orders of magnitude
BVDV SuwaCp [7]; [8]
  IC50: 15.5 µM
BVDV SuwaCp [7]; qRT-PCR, BT cells
  K22 concentrations necessary to significantly reduce viral replication of BVDV SuwaCp: ≥ 20 µM

— PMC6201103, “The Small-Compound Inhibitor K22 Displays Broad Antiviral Activity against Different Members of the Family Flaviviridae and Offers Potential as a Panviral Inhibitor” (Antimicrobial Agents and Chemotherapy, 2018)
